Assay [1] relates to Human Pancreatic Cancer Cell Line Panc1. Kind of assay: Cell death assay (propidium iodide/Hoechst) in Panc1 cells with or without camptothecin. The settings on record: 72 hours, % cell death by propidium iodide/Hoechst. In kind it is cell-based. How it is done:
When RL-cells are exposed to isoxazolidine compounds of the present invention, the inhibitors show a dose-dependent cell-killing in the Alamar blue cytoxicity assay with IC50 values of from about 100 μM to about 1 μM (See Examples). When Panc1 cells are exposed to the isoxazolidine compounds of the present invention in combination with camptothecin, the inhibitors show a synergistic dose-dependent cell killing in the propidium iodide exclusion cell survival assay with IC50 values of from about 100 μM to about 1 μM (See Examples).
• 1) Compounds were serially diluted in DMSO from a 9 mM stock to a final concentration of 0.004 mM in a 96 well plate. • 2) Assay plates were prepared by diluting compounds 310 fold into 150 ul of medium containing 10,000 cells/well, with or without 3 uM Camptothecin, resulting in a final DMSO concentration of 0.3% and a compound concentration range from 29 uM to […] for each compound. • 3) Assay plates were incubated at 37 C, 5% CO2 for 72 hours. • 4) After 72 hours, propidium iodide and Hoechst dye were added to each well according to manufacturer's instruction. • 5) Plates were imaged on a fluorescence microscope at wavelengths Ex560/Em650 (Propidium iodide) and Ex360/Em465 (Hoechst) • 6) MetaMorph imaging software was used to determine % cell death by dividing the number of propidium iodide stained cells (dead cells) by the number of Hoechst stained cells (all cells), multipled by 100, in each field.
Panc1 invitro cellular data is presented below for various compounds of the invention.

Another assay deals with Bcl-2 (Homo sapiens, UniProt P10415). The assay is described as follows: Bcl-2 binding affinity analysis (fluorescence polarization binding assay). In short, it runs like this: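 Binding to human Bcl-2 quantified in vitro by a fluorescence polarization assay.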
(In fluorescence polarisation assays a small probe gives low polarisation when free and higher when bound to something large.)

The target in another assay is Bcl-xL (Homo sapiens, UniProt Q07817). Kind of assay: Bcl-xL binding affinity analysis (fluorescence polarization binding assay). Further details: scale not given here. In short, it runs like this: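 In vitro fluorescence polarization binding assay measuring compound binding to human Bcl-xL.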
Where [2] appears, read: Homo sapiens, PANC-1, without camptothecin, read-out: Panc1 − Cpt IC50.
[3] abbreviates: with 3 uM Camptothecin, read-out: Panc1 + Cpt IC50.
Setting [4] is: without camptothecin, read-out: Panc1 − Cpt IC50.

Each structure is given as a SMILES string. Like-named read-outs stand apart in the source and are kept apart here.

Sequence of Bcl-xL (Q07817 whole entry): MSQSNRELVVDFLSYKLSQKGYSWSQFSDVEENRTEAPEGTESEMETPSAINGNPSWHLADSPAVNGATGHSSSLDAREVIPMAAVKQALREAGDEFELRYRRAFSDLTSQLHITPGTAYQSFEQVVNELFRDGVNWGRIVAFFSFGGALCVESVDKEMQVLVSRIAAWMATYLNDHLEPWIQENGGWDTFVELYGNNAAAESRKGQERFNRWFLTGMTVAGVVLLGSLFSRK
Sequence of Bcl-2 (P10415 whole entry): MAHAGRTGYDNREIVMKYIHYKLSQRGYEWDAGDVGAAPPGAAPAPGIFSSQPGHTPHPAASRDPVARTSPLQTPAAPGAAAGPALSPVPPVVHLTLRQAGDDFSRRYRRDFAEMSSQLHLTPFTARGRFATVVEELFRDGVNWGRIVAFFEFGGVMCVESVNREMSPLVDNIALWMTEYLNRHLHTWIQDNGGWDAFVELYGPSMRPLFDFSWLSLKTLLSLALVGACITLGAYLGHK

Turning to `CC(O)C1C(CO)ON(Cc2cccc(CNC(CN(C)C)C3CCCCC3)c2)C1C(=O)NC1CC2CC(C1C)C2(C)C` (stereo not drawn) [Compound 443], the IC50 in assay [1] (setting [2]) and in assay [1] (setting [3]) was greater than 2.5 µM in each case. The same compound gave a Ki at Bcl-2 of less than 0.8 µM. Also, on Bcl-xL, the “Bcl-XL binding affinity Ki” value is reported as “♯”.
On to `C[C@@H]1[C@@H](NC(=O)[C@@H]2C([C@H](C)O)[C@H](CO)ON2Cc2cccc(CN(Cc3ccccc3Br)[C@H](CN(C)C)C(C)(C)C)c2)C[C@H]2C[C@@H]1C2(C)C` (stereo partly drawn) [Compound 422], for which the results for the IC50 in assay [1] (setting [2]) and in assay [1] (setting [3]) were greater than 2.5 µM and 1.3 to 1.8 µM, respectively. The compound further returned a Ki on Bcl-2 of less than 0.8 µM. In addition, at Bcl-xL, the “Bcl-XL binding affinity Ki” value is reported as “♯”.
For `CC(C)C[C@@H](CN(C)C)N(Cc1cccc(CN2O[C@@H](CO)C([C@H](C)O)[C@H]2C(=O)N[C@H]2C[C@H]3C[C@@H]([C@@H]2C)C3(C)C)c1)Cc1c(O)cccc1F` (stereo partly drawn) [Compound 306], the IC50 was greater than 2.5 µM in assay [1] (setting [2]) and 1.3 to 1.8 µM in assay [1] (setting [3]). Moreover, the Ki at Bcl-2 is less than 0.8 µM. In addition, the “Bcl-XL binding affinity Ki” value at Bcl-xL is reported as “♯”.
Take `CC(O)C1C(CO)ON(Cc2cccc(CN(C)C(Cc3ccccc3)CN(C)C)c2)C1C(=O)NC1CC2CC(C1C)C2(C)C` (stereo not drawn) [Compound 464]: the IC50 in assay [1] (setting [2]) and in assay [1] (setting [3]) was greater than 2.5 µM each time. The Ki on Bcl-2 was less than 0.8 µM. Also, the “Bcl-XL binding affinity Ki” value on Bcl-xL is given as “♯”.
Take `CC(C)CC(CN(C)C)N(Cc1cccc(CN2OC(CO)C(C(C)O)C2C(=O)NC2CC3CC(C2C)C3(C)C)c1)Cc1ccccc1I` (stereo not drawn) [Compound 318]: the IC50 in assay [1] (setting [2]) and in assay [1] (setting [3]) was greater than 2.5 µM throughout. The compound also showed a Ki on Bcl-2 of less than 0.8 µM. Further, the “Bcl-XL binding affinity Ki” value at Bcl-xL is “♯”.
As for `CC(O)C1C(CO)ON(Cc2cccc(CN(Cc3ccccc3)C(Cc3ccccc3)CN(C)C)c2)C1C(=O)NC1CC2CC(C1C)C2(C)C` (stereo not drawn) [Compound 423], the IC50 in assay [1] (setting [2]) and in assay [1] (setting [3]) was greater than 2.5 µM each time. Further, the Ki on Bcl-2 was less than 0.8 µM. Also, the “Bcl-XL binding affinity Ki” value at Bcl-xL is listed as “♯”.
For the compound `C[C@@H]1[C@@H](NC(=O)[C@@H]2C([C@H](C)O)[C@H](CO)ON2Cc2cccc(CN(CCN(C)C)Cc3ccncc3)c2)C[C@H]2C[C@@H]1C2(C)C` (stereo partly drawn) [Compound 389], the IC50 was 1.8 to 2.5 µM in assay [1] (setting [2]) and 1.3 to 1.8 µM in assay [1] (setting [3]). On Bcl-2, this compound displayed a Ki of less than 0.8 µM. The “Bcl-XL binding affinity Ki” value on Bcl-xL is listed as “♯”.
For `CC(O)C1C(CO)ON(Cc2cccc(CN(CCN(C)C)Cc3cccs3)c2)C1C(=O)NC1CC2CC(C1C)C2(C)C` (stereo not drawn) [Compound 358] the same measures were greater than 2.5 µM, greater than 2.5 µM, less than 0.8 µM and “♯”.
For `CC(C)C[C@@H](CN(C)C)N(Cc1cccc(CN2O[C@@H](CO)C([C@H](C)O)[C@H]2C(=O)N[C@H]2C[C@H]3C[C@@H]([C@@H]2C)C3(C)C)c1)Cc1c(Cl)cccc1Cl` (stereo partly drawn) [Compound 317] the same measures were greater than 2.5 µM, greater than 2.5 µM, less than 0.8 µM and “♯”.
`CC(O)C1C(CO)ON(Cc2cccc(C(=O)NC(Cc3ccccc3)CN(C)C)c2)C1C(=O)NC1CC2CC(C1C)C2(C)C` (stereo not drawn) [Compound 508]: the IC50 in assay [1] (setting [2]) and in assay [1] (setting [3]) was greater than 2.5 µM in each case. The compound further gave a Ki at Bcl-2 of less than 0.8 µM. Further, on Bcl-xL, the “Bcl-XL binding affinity Ki” value is given as “♯”.
With `COc1cccc(F)c1CN(Cc1cccc(CN2OC(CO)C(C(C)O)C2C(=O)NC2CC3CC(C2C)C3(C)C)c1)C(CC(C)C)CN(C)C` (stereo not drawn) [Compound 305], the IC50 was 1.3 to 1.8 µM in assay [1] (setting [2]) and less than 1.3 µM in assay [1] (setting [3]). At Bcl-2, this compound displayed a Ki of less than 0.8 µM. For the same compound, the “Bcl-XL binding affinity Ki” value at Bcl-xL is given as “♯”.
Take `COC(=O)CCNC(=O)c1cccc(-c2cccc(CN3O[C@@H](CO)[C@@H]([C@H](C)O)[C@H]3C(=O)N[C@H]3C[C@H]4C[C@@H]([C@@H]3C)C4(C)C)c2)c1` [Compound 149]: the IC50 in assay [1] (setting [2]) is greater than 2.5 µM; in assay [1] (setting [3]), 1.8 to 2.5 µM. The same compound returned a Ki at Bcl-2 of less than 0.8 µM. Also, the “Bcl-XL binding affinity Ki” value at Bcl-xL is “♯”.
For `CC(O)C1C(CO)ON(Cc2cccc(CN(CCN3CCOCC3)Cc3ccccc3)c2)C1C(=O)NC1CC2CC(C1C)C2(C)C` (stereo not drawn) [Compound 434] the same measures were greater than 2.5 µM, greater than 2.5 µM, less than 0.8 µM and “♯”.
In the same order, the values of `CC(O)C1C(CO)ON(Cc2cccc(CN(CCN(C)C)Cc3ccsc3)c2)C1C(=O)NC1CC2CC(C1C)C2(C)C` (stereo not drawn) [Compound 347] are greater than 2.5 µM, greater than 2.5 µM, less than 0.8 µM and “♯”.
For the compound `CC(C)C(CN(C)C)NCc1cccc(CN2OC(CO)C(C(C)O)C2C(=O)NC2CC3CC(C2C)C3(C)C)c1` (stereo not drawn) [Compound 463], the half-inhibitory concentration (IC50) in assay [1] (setting [4]) is greater than 2.5 µM. On Bcl-2, this compound came in with a Ki of less than 0.8 µM. Also, on Bcl-xL, the “Bcl-XL binding affinity Ki” value is given as “♯”.
Take `CC(O)C1C(CO)ON(Cc2cccc(CN(CCN3CCCCCC3)Cc3ccccc3)c2)C1C(=O)NC1CC2CC(C1C)C2(C)C` (stereo not drawn) [Compound 427]: the IC50 in assay [1] (setting [2]) and in assay [1] (setting [3]) was greater than 2.5 µM in each case. Further, the Ki at Bcl-2 was less than 0.8 µM. For the same compound, the “Bcl-XL binding affinity Ki” value at Bcl-xL is given as “♯”.
For the compound `CC(O)C1C(CO)ON(Cc2cccc(CN(CCN(C)C)Cc3ccc(F)cc3)c2)C1C(=O)NC1CC2CC(C1C)C2(C)C` (stereo not drawn) [Compound 376], the IC50 in assay [1] (setting [2]) fell in the range of 1.8 to 2.5 µM; in assay [1] (setting [3]), 1.3 to 1.8 µM. In addition, the Ki on Bcl-2 was less than 0.8 µM. For the same compound, on Bcl-xL, the “Bcl-XL binding affinity Ki” value is reported as “♯”.
In the same order, the values of `CC(O)C1C(CO)ON(Cc2cccc(C(=O)NC(CC3CCCCC3)CN(C)C)c2)C1C(=O)NC1CC2CC(C1C)C2(C)C` (stereo not drawn) [Compound 501] are 1.8 to 2.5 µM, 1.3 to 1.8 µM, less than 0.8 µM and “♯”.
In the same order, the values of `CC(C)C(CN(C)C)NCc1cccc(CN2OC(CO)C(C(C)O)C2C(=O)NC2CC3CC(C2C)C3(C)C)c1` (stereo not drawn) [Compound 462] are greater than 2.5 µM, greater than 2.5 µM, less than 0.8 µM and “♯”.
Consider `CCN1CCCC1CN(Cc1ccccc1)Cc1cccc(CN2OC(CO)C(C(C)O)C2C(=O)NC2CC3CC(C2C)C3(C)C)c1` (stereo not drawn) [Compound 426], for which the IC50 in assay [1] (setting [2]) and in assay [1] (setting [3]) was greater than 2.5 µM in each case. For the same compound, the Ki on Bcl-2 was less than 0.8 µM. The “Bcl-XL binding affinity Ki” value at Bcl-xL is “♯”.
On to `CC(O)C1C(CO)ON(Cc2cccc(CNC(CC3CCCCC3)CN(C)C)c2)C1C(=O)NC1CC2CC(C1C)C2(C)C` (stereo not drawn) [Compound 451], for which the 50% inhibitory concentration (IC50) in assay [1] (setting [4]) was greater than 2.5 µM. Besides, the Ki at Bcl-2 is less than 0.8 µM. Besides, the “Bcl-XL binding affinity Ki” value on Bcl-xL is on record as “♯”.
With `CC(O)C1C(CO)ON(Cc2cccc(CN(CCN3CCCC3)Cc3ccccc3)c2)C1C(=O)NC1CC2CC(C1C)C2(C)C` (stereo not drawn) [Compound 430], the IC50 in assay [1] (setting [2]) and in assay [1] (setting [3]) was greater than 2.5 µM throughout. In addition, the Ki at Bcl-2 was less than 0.8 µM. Besides, the “Bcl-XL binding affinity Ki” value on Bcl-xL is reported as “♯”.
For `CCOc1c(CN2O[C@@H](CO)[C@@H]([C@H](C)O)[C@H]2C(=O)N[C@H]2C[C@H]3C[C@@H]([C@@H]2C)C3(C)C)cccc1-c1cccc(C(=O)N[C@H](CC(C)C)CN(C)C)c1` [Compound 494], the IC50 in assay [1] (setting [2]) and in assay [1] (setting [3]) was greater than 2.5 µM in each case. This compound yielded a Ki at Bcl-2 of less than 0.8 µM. Moreover, the “Bcl-XL binding affinity Ki” value on Bcl-xL is listed as “♯”.
Regarding `COc1c(CN2O[C@@H](CO)[C@@H]([C@H](C)O)[C@H]2C(=O)N[C@H]2C[C@H]3C[C@@H]([C@@H]2C)C3(C)C)cccc1-c1cccc(C(=O)N[C@H](CN(C)C)CC(C)(C)C)c1` [Compound 479], the IC50 in assay [1] (setting [2]) lay within 1.8 to 2.5 µM; in assay [1] (setting [3]), 1.3 to 1.8 µM. For the same compound, the Ki on Bcl-2 is less than 0.8 µM. Besides, the “Bcl-XL binding affinity Ki” value on Bcl-xL is “♯”.
In the same order, the values of `CC(O)C1C(CO)ON(Cc2cccc(CNC(Cc3ccccc3)CN(C)C)c2)C1C(=O)NC1CC2CC(C1C)C2(C)C` (stereo not drawn) [Compound 454] are greater than 2.5 µM, greater than 2.5 µM, less than 0.8 µM and “♯”.
In the case of `CC(O)C1C(CO)ON(Cc2cccc(CNC(CN(C)C)CC(C)(C)C)c2)C1C(=O)NC1CC2CC(C1C)C2(C)C` (stereo not drawn) [Compound 455], the IC50 in assay [1] (setting [2]) and in assay [1] (setting [3]) was greater than 2.5 µM each time. Also, the Ki at Bcl-2 is less than 0.8 µM. Further, on Bcl-xL, the “Bcl-XL binding affinity Ki” value was “♯”.

Broadly, the IC50 is the concentration needed to halve the response being measured. By Ki is commonly meant the dissociation constant of the complex between target and ligand, obtained from inhibition or displacement.

For the origin of these results see US7851637B2, “Compounds and methods for inhibiting the interaction of BCL proteins with binding partners” (Infinity Pharmaceuticals, Inc., priority 2004, dated 2010).
